Consider 5 molecules from patent US6479532B1, “Antifungal compositions” (Fujisawa Pharmaceutical Co., Ltd., priority 1999, dated 2002).

Counter-ions that a name gives are not always drawn. Marks after values point to notes of the source that are not given here.

What all share (assay type): cell-based
One assay deals with Trichophyton rubrum 7005. Briefly: Agar plate dilution assay (checker board), PY + BTF. As to the method: (§1) With Trichophyton spp., each strain was cultured on a Sabouraud's glucose agar (glucose 2%) slant at 25° C. for 2˜3 weeks. Then, about 3˜5 ml of physiological saline supplemented with 0.1% (w/v) Tween 80 and sterilized was added to the above slant culture of the test strain and conidia were liberated by scratching the slant surface with a platinum loop. The collected conidial suspension was filtered through a fine-mesh metal sieve to remove hyphal masses and, then, centrifuged at 3000×g for 10 minutes to concentrate the conidia. The concentrate was resuspended in the same sterile saline solution as above, the conidia were counted with a hemocytometer, and the suspension was adjusted to a predetermined conidial population (10^5 spores/ml).
(§2) Each plate was inoculated with a microbial suspension of predetermined concentration (cells or spores/ml) by the stamping method. Trichophyton spp. were cultured at 25° C. for 2 weeks and Candida spp. were cultured at 30° C. for 2 days. Then, the growth of each test strain was investigated.
(§3) The FIC index was calculated from the MIC value of PY or LC as used alone or PY and LC as used in combination.
(§4) For Trichophyton spp., the same medium as used in Test Example 1 was used.
(§5) With Trichophyton spp., the procedure of Test Example 1 was repeated.
(§6) A 1 mg/ml solution of each drug was prepared by using ethyl alcohol for PY or dimethyl sulfoxide (DMSO) for BTF and diluted to a predetermined concentration using 20% ethyl alcohol as diluent for PY or 10% DMSO as diluent for BTF.
(§7) In the case of Trichophyton spp., 0.5 ml of a PY solution and 0.5 ml of a BTF solution, both of predetermined concentration, were blended with 9 ml of the medium to prepare a drug-containing agar plate and the procedure of test Example 1 was repeated.
(§8) Calculation of the FIC index was also performed in the same manner as in Test Example 1.

In assay [1] the test system is Trichophyton rubrum 7030. Described as above. As to the method:
as §1, §2, §3, §4, §5, §6, §7, §8

In assay [2] the test system is Staphylococcus epidermidis 15001. The description is as above. The settings on record: drug alone, test strain g, 37° C., 20 hours. As for the experimental part: For the general bacterium (S. epidermidis), Mueller Hinton agar medium was used. The general bacterium was cultured in Mueller Hinton broth medium at 37° C. for 20 hours and the culture was diluted 100-fold with the same medium (10^6 cells/ml) and used. A 1 mg/ml solution of each drug was prepared by using ethyl alcohol for PY or dimethyl sulfoxide (DMSO) for BTF and diluted to a predetermined concentration using 20% ethyl alcohol as diluent for PY or 10% DMSO as diluent for BTF. In the case of the general bacterium, Mueller Hinton agar medium was used to prepare plates and the procedure of Test Example 1 was repeated. After 20 hours of culture at 37° C., the growth of the test organism was investigated. Calculation of the FIC index was also performed in the same manner as in Test Example 1.

Assay [3] relates to Candida albicans 12012. Briefly: Agar plate dilution assay (checker board), PY + LC. The settings on record: 48 h, drug alone, test strain b, 30° C., 2 days. As to the method:
(§9) Sabouraud's glucose agar (glucose 2%) Candida albicans was cultured in Sabouraud's broth medium (glucose 2%) at30° C. for 24 hours and the resulting culture was diluted 10-fold with the same medium as above (10^5 cells/ml) and used. Using ethyl alcohol for PY and dimethyl sulfoxide (DMSO) for LC, a 1 mg/ml solution of each drug was respectively prepared. Then, the solution was diluted to a predetermined concentration using 20% ethyl alcohol as diluent for PY and 10% DMSO as diluent for LC. For the determination of inhibitory activity, 0.5 ml of a PY solution and 0.5 ml of an LC solution, each adjusted to a predetermined concentration were blended with 9 ml of Sabouraud's glucose agar medium to prepare drug-containing plates (checker board method). Each plate was inoculated with a microbial suspension of predetermined concentration (cells or spores/ml) by the stamping method. Trichophyton spp. were cultured at 25° C. for 2 weeks and Candida spp. were cultured at 30° C. for 2 days. Then, the growth of each test strain was investigated. The FIC index was calculated from the MIC value of PY or LC as used alone or PY and LC as used in combination.

The next assay deals with Candida albicans YU-1200. Briefly: Agar plate dilution assay (checker board), PY + LC. The settings on record: YU1200, 48 h, drug alone, test strain a, 30° C., 2 days. As for the experimental part: as §9
Assay [4] concerns Trichophyton rubrum 7010. Briefly: Agar plate dilution assay (checker board), PY + LC. The following applies: Trichophyton rubrum, 7010, 336 h. As to the method: (§10) Sabouraud's glucose agar (glucose 2%)
as §1
(§11) Using ethyl alcohol for PY and dimethyl sulfoxide (DMSO) for LC, a 1 mg/ml solution of each drug was respectively prepared. Then, the solution was diluted to a predetermined concentration using 20% ethyl alcohol as diluent for PY and 10% DMSO as diluent for LC.
(§12) For the determination of inhibitory activity, 0.5 ml of a PY solution and 0.5 ml of an LC solution, each adjusted to a predetermined concentration were blended with 9 ml of Sabouraud's glucose agar medium to prepare drug-containing plates (checker board method).
as §2, §3

Assay [5] has as its system Trichophyton rubrum 7030. Briefly: Agar plate dilution assay (checker board), PY + LC. The following applies: Trichophyton rubrum, 7030, 336 h. As to the method: as §10, §1, §11, §12, §2, §3
Assay [6] has as its system Candida albicans 12012. Briefly: Fungicidal effect, viable cell count after 24 h in broth. As to the method:
Medium used: Sabouraud's (glucose 2%) broth medium
Test strain: Candida albicans 12012
Inoculum size: about 10^4 cells/ml (1% of a 24-hour culture using Sabouraud's broth medium at 30° C.)
To one part by volume of a drug solution prepared at a concentration 10 times the predetermined concentration was added 9 parts by volume of the inoculated Sabouraud's broth medium, followed by mixing. The mixture was incubated at 30° C. for 24 hours and the MIC was determined.
Furthermore, 0.1 ml samples were taken from the test microbial suspensions of varying concentrations and inoculated onto Sabouraud's (glucose 2%) agar plates using Conradi's spreader.
After 2 days of culture at 30° C., the colonies formed were counted and the number of remaining viable cells per 0.1 ml was determined.

Another assay has as its system Candida albicans 16010. Briefly: Agar plate dilution assay (checker board), PY + TF. The settings on record: 48 h, drug alone, test organism h, 30° C., 2 days. As to the method:
Mueller Hinton agar medium was used for Staphylococcus spp. and Sabouraud's glucose agar (glucose 2%) medium was used for the fungi. Candida albicans was cultured in Sabouraud's broth medium (glucose 2%) at 30° C. for 24 hours and the culture was diluted 10-fold (10^5 cells/ml) with the same medium and used. A 1 mg/ml solution of each drug was prepared using ethyl alcohol for PY or dimethyl sulfoxide (DMSO) for TF and diluted to a predetermined concentration by using 20% ethyl alcohol as diluent for PY or 10% DMSO as diluent for TF. For the determination of the growth-inhibitory effects of drugs on test organisms, drug-containing plates were prepared by blending 0.5 ml of a PY solution and 0.5 ml of a TF solution, both of predetermined concentration, with 9 ml of said medium. The plates were inoculated with the microbial suspensions (cells or spores/ml) by the stamping technique. Trichophyton spp. were cultured at 25° C. for 2 weeks, Candida spp. at 30° C. for 2 days, and Staphylococcus spp. at 37° C. for 20 hours. Then, the growth of each test organism was investigated (checker board method). The FIC index was calculated from the MIC value of PY or TF alone or the two drugs used in combination.

For assay [7], the system named is Trichophyton rubrum 7010. Briefly: Agar plate dilution assay (checker board), PY + TF. As for the experimental part:
(§13) Mueller Hinton agar medium was used for Staphylococcus spp. and Sabouraud's glucose agar (glucose 2%) medium was used for the fungi.
as §1
(§14) A 1 mg/ml solution of each drug was prepared using ethyl alcohol for PY or dimethyl sulfoxide (DMSO) for TF and diluted to a predetermined concentration by using 20% ethyl alcohol as diluent for PY or 10% DMSO as diluent for TF.
(§15) For the determination of the growth-inhibitory effects of drugs on test organisms, drug-containing plates were prepared by blending 0.5 ml of a PY solution and 0.5 ml of a TF solution, both of predetermined concentration, with 9 ml of said medium.
(§16) The plates were inoculated with the microbial suspensions (cells or spores/ml) by the stamping technique. Trichophyton spp. were cultured at 25° C. for 2 weeks, Candida spp. at 30° C. for 2 days, and Staphylococcus spp. at 37° C. for 20 hours. Then, the growth of each test organism was investigated (checker board method).
(§17) The FIC index was calculated from the MIC value of PY or TF alone or the two drugs used in combination.

In assay [8] the test system is Trichophyton rubrum 7030. Briefly: Agar plate dilution assay (checker board), PY + TF. As for the experimental part: as §13, §1, §14, §15, §16, §17
For assay [9], the system named is Staphylococcus aureus FP5. Briefly: Agar plate dilution assay (checker board), PY + TF. The following applies: drug alone, test organism k, 37° C., 20 hours. As for the experimental part:
(§18) Mueller Hinton agar medium was used for Staphylococcus spp. and Sabouraud's glucose agar (glucose 2%) medium was used for the fungi. Staphylococcus spp. were cultured in Mueller Hinton broth medium at 37° C. for 18˜20 hours and diluted 100-fold with the same medium (about 10^6 cells/ml) and this dilution was used as the inoculum. A 1 mg/ml solution of each drug was prepared using ethyl alcohol for PY or dimethyl sulfoxide (DMSO) for TF and diluted to a predetermined concentration by using 20% ethyl alcohol as diluent for PY or 10% DMSO as diluent for TF. For the determination of the growth-inhibitory effects of drugs on test organisms, drug-containing plates were prepared by blending 0.5 ml of a PY solution and 0.5 ml of a TF solution, both of predetermined concentration, with 9 ml of said medium. The plates were inoculated with the microbial suspensions (cells or spores/ml) by the stamping technique. Trichophyton spp. were cultured at 25° C. for 2 weeks, Candida spp. at 30° C. for 2 days, and Staphylococcus spp. at 37° C. for 20 hours. Then, the growth of each test organism was investigated (checker board method). The FIC index was calculated from the MIC value of PY or TF alone or the two drugs used in combination.

The test system of assay [10] is Staphylococcus epidermidis 15001. Briefly: Agar plate dilution assay (checker board), PY + TF. The following applies: drug alone, test organism l, 37° C., 20 hours. As for the experimental part: as §18
Setting [11] is: drug concentration 3.13 μg/ml, class symbol.
Setting [12] is: drug concentration 6.25 μg/ml, class symbol.

By MIC is commonly meant the lowest concentration found to suppress growth. In the case of `CN(Cc1ccc(C(C)(C)C)cc1)Cc1cccc2ccccc12` [BTF, Butenafine Hydrochloride], the results for the MIC (in the assay with Trichophyton rubrum 7005; in the assay with Trichophyton rubrum 7030 [1]; in assay [2]) were 0.025 µg/mL, 0.025 µg/mL and 25 µg/mL, respectively.
Consider `N#C/C(=C1/SCC(c2ccccc2Cl)S1)n1ccnc1` (centres unmarked) [LC, Lanoconazole], for which the MIC with Candida albicans 12012 [3] is 25 µg/mL; in the assay with Candida albicans YU-1200 it was 12.5 µg/mL; in the assay on Trichophyton rubrum 7010 [4] it was 0.025 µg/mL; in the assay on Trichophyton rubrum 7030 [5], 0.0125 µg/mL. Further, the Viable cell count entry in the assay on Candida albicans 12012 [6] (setting [11]) is reported as “∞ (∞: 10^3˜10^4)”; in the assay with Candida albicans 12012 [6] (setting [12]), “∞ (∞: 10^3˜10^4)”; with Candida albicans 12012 [6] (drug concentration 12.5 μg/ml), 876 CFU/0.1 ml; with Candida albicans 12012 [6] (drug concentration 25 μg/ml), 308 CFU/0.1 ml.
Take `O=[N+]([O-])c1c(Cl)cccc1-c1c[nH]cc1Cl` [PY, Pyrrolnitrin]: the MIC came out at 25 µg/mL in the assay with Candida albicans 12012 [3]; 12.5 µg/mL in the assay on Candida albicans YU-1200; 0.2 µg/mL in the assay on Trichophyton rubrum 7010 [4]; 0.2 µg/mL with Trichophyton rubrum 7030 [5]; 0.1 µg/mL with Trichophyton rubrum 7005; 0.1 µg/mL in the assay on Trichophyton rubrum 7030 [1]. The MIC was 25 µg/mL in [2]; 25 µg/mL in the assay with Candida albicans 16010; 0.2 µg/mL with Trichophyton rubrum 7010 [7] (Trichophyton rubrum, 7010, 336 h); 0.39 µg/mL with Trichophyton rubrum 7030 [8] (Trichophyton rubrum, 7030, 336 h); 25 µg/mL in assay [9]; 12.5 µg/mL in assay [10].
Take `CN(C/C=C/C#CC(C)(C)C)Cc1cccc2ccccc12` [TF, Terbinafine Hydrochloride]: the MIC with Candida albicans 16010 turned out to be 50 µg/mL; in the assay with Trichophyton rubrum 7010 [7] (336 h, drug alone, test organism i, Trichophyton rubrum 7010, 25° C., 2 weeks, read-out: MIC), 0.0125 µg/mL; in the assay with Trichophyton rubrum 7030 [8] (336 h, drug alone, test organism j, Trichophyton rubrum 7030, 25° C., 2 weeks, read-out: MIC) it was 0.0125 µg/mL; in assay [9], 50 µg/mL; in assay [10], 25 µg/mL.
On to Pyrrolnitrin, for which the Viable cell count result with Candida albicans 12012 [6] (setting [11]) is given as “∞ (∞: 10^3˜10^4)”; in the assay with Candida albicans 12012 [6] (setting [12]), “∞ (∞: 10^3˜10^4)”; in the assay on Candida albicans 12012 [6] (drug concentration 12.5 μg/ml) it was 1012 CFU/0.1 ml; with Candida albicans 12012 [6] (drug concentration 25 μg/ml), 1 CFU/0.1 ml.
